These are literature values, as cited in US20240400784A1, “Method for Screening Solvent for Extracting Polyvinyl Chloride, Method for Recycling Waste, Recycled Polyvinyl Chloride, and Composition” (LG Chem, Ltd., priority 2021, published 2024).

The conditions of this series: value in Table 1 of Document #1; swollen PVC and solvent volume based on PVC volume.

With Water, the PVC swelling ratio is on record as 1.

`CCCCCO` [1-Pentanol]: the PVC swelling ratio is recorded as 1.02.

On to `CCCC(C)=O` [2-Pentanone], for which the PVC swelling ratio is reported as 12.69.

In the case of `CC(=O)CC(C)C` [4-Methylpentan-2-one], the PVC swelling ratio is on record as 7.06.

Consider `CCOC(C)=O` [Ethyl acetate], for which the PVC swelling ratio is given as 2.38.

Regarding `OC1CCCCC1` [Cyclohexanol], the PVC swelling ratio was 1.1.

`c1ccccc1` [Benzene]: the PVC swelling ratio is 1.07.

On to `C1CCCCC1` [Cyclohexane], for which the PVC swelling ratio was 1.04.
